Key:
[1] = molecular target: T1, LGC-55 (Caenorhabditis elegans, UniProt G5EEC1); assay: two-electrode voltage clamp, Xenopus oocytes; format: cell-based
T1 sequence (G5EEC1 17-538): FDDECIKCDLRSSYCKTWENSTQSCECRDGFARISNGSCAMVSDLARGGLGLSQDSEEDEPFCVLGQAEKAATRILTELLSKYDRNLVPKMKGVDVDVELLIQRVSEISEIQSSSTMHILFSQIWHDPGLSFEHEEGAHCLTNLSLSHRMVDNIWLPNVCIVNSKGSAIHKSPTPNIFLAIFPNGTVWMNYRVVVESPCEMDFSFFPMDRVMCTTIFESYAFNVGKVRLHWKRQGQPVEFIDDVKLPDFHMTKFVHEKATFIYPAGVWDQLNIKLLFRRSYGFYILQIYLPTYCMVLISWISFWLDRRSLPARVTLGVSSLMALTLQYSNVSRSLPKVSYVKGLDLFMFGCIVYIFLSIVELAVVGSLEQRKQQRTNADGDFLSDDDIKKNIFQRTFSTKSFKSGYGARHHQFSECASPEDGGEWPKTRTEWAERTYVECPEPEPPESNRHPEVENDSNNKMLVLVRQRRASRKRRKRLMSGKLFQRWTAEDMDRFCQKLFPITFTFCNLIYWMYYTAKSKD

[2] = molecular target: T1, LGC-55; assay: two-electrode voltage clamp, Xenopus oocytes; format: cell-based; conditions: weak agonist; ND96, -60 mV, 10 s application, 22-24 °C

SMILES: NCCc1ccc(O)c(O)c1 [dopamine]
- EC50 [1]: 158.8 ± 1.1 µM

SMILES: NC[C@H](O)c1ccc(O)cc1 [octopamine]
- EC50 [1]: 215.2 ± 1.1 µM

SMILES: NCCc1c[nH]c2ccc(O)cc12 [serotonin]
- small inward currents at millimolar concentrations [2]: serotonin only elicited small LGC-55-dependent inward currents at millimolar concentrations

SMILES: NCCc1ccc(O)cc1 [tyramine]
- EC50 [1]: 12.1 ± 1.2 µM
